Experimental data published in patent US20120108632A1, “[…] INHIBITORS FOR OCULAR HYPERTENSION CONTROL AND THE TREATMENT OF GLAUCOMA” (ALCON RESEARCH, LTD., priority 2006, published 2012).

Assays:
GGTase = GGTase (Homo sapiens, UniProt P53609); conditions: cited from earlier work
[1] = system: CTGF gene expression in cultured human trabecular meshwork cells; experiment: Basal and TGFβ2-induced CTGF gene expression by QRT-PCR in TM cells; type: cell-based; conditions: for measured CTGF levels (CTGF/18S cDNA) compared to TGFβ2-treated cells: TM cells treated with TGFβ2 and inhibitor, versus TGFβ2 alone, FIGS. 1 and 2
Excerpt: (§1) Total RNA was isolated from TM cells using Qiagen RNeasy 96 system according to the manufacturer's instructions (Qiagen).
Differential expression of CTGF and PAI-1 were verified by quantitative real-time RT-PCR (QRT-PCR) using an ABI Prism® 7700 Sequence Detection System (Applied Biosystems) essentially as previously described (Shepard et al., IOVS, 2001, Vol. 42:3173). Primers for CTGF amplification were designed using Primer Express software (Applied Biosystems) to anneal to adjacent exons of Genbank accession #NM_001901.1 ([…] (SEQ ID NO: 1), nts 1667-1689 and […] (SEQ ID NO: 2), nts 1723-1742, with probe sequence 6FAM-[…]-TAMRA (SEQ ID NO: 3)) and generate a 76-bp amplicon. Primers for PAI-1 amplification were purchased from ABI (Hs00167155 ml) and correspond to Genbank accession #NM_000602.1. Amplification of CTGF or PAI-1 was normalized to 18S ribosomal RNA expression using primers designed to the 18S rRNA gene (GenBank accession #X03205 […] (SEQ ID NO: 4), nts 1680-1700 and […] (SEQ ID NO: 5), nts 1730-1749, with probe sequence 6FAM-[…]-MGBNFQ (SEQ ID NO: 6)) which generates a 69-bp amplicon. CTGF or PAI-1 QRT-PCR was performed in multiplex with 18S primer/probe sets in a 50 ul final volume consisting of 40 nM 18S or 900 nM CTGF or PAI-1 primers; 100 nM 18S probe or 100 nM CTGF or 250 nM PAI-1 probe; 5 ul RNA; 1× Multiscribe and RNase Inhibitor Mix (ABI); and 1× TaqMan® Universal Mix (ABI). Thermal cycling conditions consisted of 48° C., 30 min, 95° C. 10 min followed by 40 cycles at 95° C., 15 sec, 60° C., 1 min. […] Quantification of relative RNA concentrations was done using the delta delta Ct method as described in PE Biosystems User Bulletin #2. Levels of amplified products were expressed as mean±SEM of quadruplicate QRT-PCR assays. […]
(§2) In this example, the effectiveness of GGTase and FTase inhibitors on CTGF gene expression in cultured human trabecular meshwork cells was studied. In this experiment, the CTGF/18S cDNA levels were measured and compared by QRT-PCR according to the protocol of Example 1.

[2] = system: PAI-1 gene expression in TM cell lines; experiment: TGFβ2-induced PAI-1 gene expression by QRT-PCR in TM cells; type: cell-based, human; conditions: TM cell lines treated with TGFβ2 and inhibitor, versus TGFβ2 alone; FIG. 3
Excerpt: as §1
Differential expression of CTGF and PAI-1 were verified by quantitative real-time RT-PCR (QRT-PCR) using an ABI Prism® 7700 Sequence Detection System (Applied Biosystems) essentially as previously described (Shepard et al., IOVS, 2001, Vol. 42:3173). Primers for CTGF amplification were designed using Primer Express software (Applied Biosystems) to anneal to adjacent exons of Genbank accession #NM_001901.1 ([…] (SEQ ID NO: 1), nts 1667-1689 and […] (SEQ ID NO: 2), nts 1723-1742, with probe sequence 6FAM-[…]-TAMRA (SEQ ID NO: 3)) and generate a 76-bp amplicon. Primers for PAI-1 amplification were purchased from ABI (Hs00167155 ml) and correspond to Genbank accession #NM_000602.1. […] Quantification of relative RNA concentrations was done using the delta delta Ct method as described in PE Biosystems User Bulletin #2. Levels of amplified products were expressed as mean±SEM of quadruplicate QRT-PCR assays. […]
as §2

[3] = system: lactate dehydrogenase (LDH) release into culture media; experiment: CytoTox-ONE Homogenous Membrane Integrity Assay (LDH release); type: cell-based; conditions: conclusion from LDH release; FIG. 4
Ftase = Ftase (Homo sapiens, UniProt P49356); conditions: cited from earlier work

**Q.** Which IC50 (GGTase) does the source give for `CSCC[C@H](NC(=O)c1ccc(NC[C@@H](N)CS)cc1-c1ccccc1)C(=O)O` [FTI-276] here?
**A.** The IC50 was 50 nM.

**Q.** With `COC(=O)[C@H](CCSC)NC(=O)c1ccc(NC[C@@H](N)CS)cc1-c1ccccc1` [FTI-277] as the compound, how does the “measured CTGF levels (CTGF/18S cDNA) compared to TGFβ2-treated cells” value [1] read?
**A.** The value was “produces a drop in measured CTGF levels”.

**Q.** What about the “measured PAI-1 compared to TGFβ2-treated cells” value [2] of the same compound?
**A.** The value was “able to produce drops in measured PAI-1”.

**Q.** What about the cytotoxicity [3] of the same compound?
**A.** The cytotoxicity was “relatively low cytotoxicity”.

**Q.** And the IC50 (Ftase)?
**A.** The IC50 was 100 nM.

**Q.** For `CSCC[C@H](NC(=O)c1ccc(NC(=O)[C@@H](N)CS)cc1)C(=O)O` [Ftase Inhibitor II], which IC50 (Ftase) is on record?
**A.** Its IC50 is 50 nM.

**Q.** Which IC50 (GGTase) does the source give for `CSCC[C@H](NC(=O)[C@H](Cc1ccccc1)NC[C@@H](NC[C@@H](N)CS)C(C)C)C(=O)O` [Ftase Inhibitor I] here?
**A.** Its IC50 is 790 nM.

**Q.** And the IC50 (Ftase)?
**A.** Its IC50 is 21 nM.

**Q.** With `COC(=O)[C@H](CC(C)C)NC(=O)c1ccc(NC[C@@H](N)CS)cc1-c1ccccc1` [GGTI-286] as the compound, how does the IC50 (GGTase) read?
**A.** Its IC50 is 2000 nM.

**Q.** For `CC(C)C[C@H](NC(=O)c1ccc(NC[C@@H](N)CS)cc1-c1cccc2ccccc12)C(=O)O` [GGTI-297], which IC50 (GGTase) is on record?
**A.** The IC50 was 50 nM.

**Q.** And the IC50 (Ftase)?
**A.** The IC50 was 200 nM.

**Q.** For `COC(=O)[C@H](CC(C)C)NC(=O)c1ccc(NC[C@@H](N)CS)cc1-c1cccc2ccccc12` [GGTI-298], which IC50 (GGTase) is on record?
**A.** The IC50 was 3000 nM.

**Q.** With `CC(C)C[C@H](NC(=O)c1ccc(NCc2cnc[nH]2)cc1-c1cccc2ccccc12)C(=O)O` [GGTI-2133] as the compound, how does the “measured CTGF levels (CTGF/18S cDNA) compared to vehicle alone” value ([1]; TM cell cultures treated with TGFβ2 and inhibitor, versus vehicle alone, FIG. 1) read?
**A.** The value was “lower than with vehicle alone”.

**Q.** What about the “measured CTGF levels (CTGF/18S cDNA) compared to TGFβ2-treated cells” value [1] of the same compound?
**A.** The value was “dramatically reduced CTGF levels”.

**Q.** What about the “measured PAI-1 compared to TGFβ2-treated cells” value [2] of the same compound?
**A.** The value was “able to produce drops in measured PAI-1”.

**Q.** And the cytotoxicity [3]?
**A.** The cytotoxicity was “relatively low cytotoxicity”.

**Q.** What about the IC50 (GGTase) of the same compound?
**A.** Its IC50 is 38 nM.

**Q.** What about the IC50 (Ftase) of the same compound?
**A.** Its IC50 is 5400 nM.

**Q.** Which results are given for `COC(=O)[C@H](CC(C)C)NC(=O)c1ccc(NCc2cnc[nH]2)cc1-c1cccc2ccccc12` [GGTI-2147]?
**A.** IC50 (GGTase): 500 nM; IC50 (Ftase): 30000 nM
